In patent US20210228523A1, “MODULATORS OF SESTRIN-GATOR2 INTERACTION AND USES THEREOF” (Navitor Pharmaceuticals, Inc., priority 2017, published 2021):

What was measured:
[1] = system: marmosets (Callithrix jacchus); assay: Marmoset Human Threat Test (HTT); format: in vivo; settings: Example J, ketamine 0.3 mg/kg i.m.
Text: Marmoset Human Threat Test (HTT): Marmosets were challenged by the presence of a human observer over a long period of time on a regular basis. Such chronic stimulation is known to increase plasma cortisol and the subsequent increase in hypothalamic-pituitary-adrenal function contributed to the pathophysiology of depressive illness.
Study Design: Thirty-six (36) marmosets (Callithrix jacchus) were paired and divided randomly divided into treatment groups. Twenty-four hours before the Human Threat Test (HTT) animals were treated with vehicle, ketamine (0.3 mg/kg; i.m.) or NV-5138 (160 mg/kg; p.o.). The following day, the same animals were treated with either vehicle (s.c.) or chloriazepoxide (1 mg/kg; s.c.). The animals were then monitored for the number of threat postures over a two (2) minutes period with the presence of a human observer. Locomotor activity was monitored over the same period, as measured by the number of jumps observed.

Male Sprague Dawley rats = assay: Novelty Suppressed Feeding Test (NSFT) with home cage feeding control; format: in vivo, rat; settings: Example I; Ket 10 mg/kg i.p. on alternate days (day 0, 2, 4, 6); day 9
Description: Behavioral Analysis Using the Novelty Suppressed Feeding Test (NSFT): The NSFT was conducted as previously described (Warner-Schmidt, J. L. & Duman, R. S. PNAS 104(11): 4647-52 (2007)). Rats were fasted in their home cages for 20 hr and then placed in a Plexiglas open field (76.5 cm×76.5 cm×40 cm) with a small amount of food in the center. Animals were allowed to explore the open field for 8 min and the latency to feed (s) was recorded.
Chronic Unpredictable Stress (CUS) Conditions: Rats were exposed to a variable sequence of 12 unpredictable stressors, preventing habituation as described (Li, N. et al., Biol Psychiatry 69(8): 754-61 (2011)). The following twelve stressors were applied (2 per day, for 25 days): cage rotation, light on, light off, cold stress, isolation, swim stress, food and water deprivation, wet bedding, stroboscope, cage tilt, odor exposure and group housing. The animals in non-stressed (NS) groups were housed normally without the application of external stressors. Both NS and CUS rats were handled and weighed weekly.
Study Design. Thirty-two (32) male Sprague Dawley Male rats weighing between 175 and 200 g were randomized into 4 study groups (n=8/treatment group), following a 5-day acclimation period. On study day 0, rats received a single dose of either saline (Sal) or ketamine (Ket) in Groups 1 and 2, respectively, by intraperitoneal injection (i.p.). The rats in Group 3 and 4 received a single dose of the NV-5138 vehicle (Veh, 0.5% Methylcellulose/0.1% Tween-80) or NV-5138 (160 mg/kg), respectively, by oral gavage. All rats were subjected to the FUST on day 1, 24 hrs after dosing. On day 2, 48 hrs after dosing, the LMA of all rats was measured in an open field. Rats were then fasted for 20 hrs and subjected to the NSFT, 72 hrs post-dose.
Study Design: Fifty-six (56) male rats weighing between 175 and 200 g were randomized into 4 study groups (n=14/group), following a 5-day acclimation period. On study day minus 20, two groups of rats were subjected to CUS for 25 days and two groups of rats were housed normally serving as the NS group. On the day 21 of the CUS protocol, rats received a single dose of either Veh or NV-5138 (160 mg/kg) by oral gavage (day 0). The SPT and NSFT were performed 24 and 48 hrs post-administration (days 1 and 2), respectively. Upon completion of the behavioral tests, after 25 days of the CUS protocol a second dose of NV-5138 or Veh was administered on day 5 and rats were sacrificed 24 hrs later by conscious decapitation. Crude synaptosomes were prepared from the PFC and the synaptic proteins, GluR1 and PSD95 were quantitated by WB.
Study Design. Twenty (20) male rats weighing between 175 and 200 g were randomized into 3 study groups (n=6-7/group), following a 5-day acclimation period. All rats were surgically implanted with bilateral IT cannulas in the PFC 2 weeks prior to dosing. […] Thirty minutes following the intrathecal infusions, either NV-5138 vehicle (Veh-NV, 0.5% methylcellulose/0.1% Tween-80) or NV-5138 (160 mg/kg) was administered by oral gavage. Each treatment group was assessed at the designated time following oral dosing in FST 24 hrs (day 1) LMA 48 hrs (day 2) and the NSFT 72 hrs (day 3 following a 20 hr period of fasting). LMA was measured to rule out overall changes in generally locomotor activity. The study design is presented in Table 11 with timeline of surgical procedures, test article administration and behavioral tests is provided in FIG. 20
Study Design. Forty-eight (48) male rats weighing between 175 and 200 g were randomized into 6 study groups (n=8/group), following a 5-day acclimation period. A single dose of all test articles was administered on day 0 and the behavioral tests were performed 3, 7 and 10 days later. Groups 1 and 2 were dosed on day 0 with NV-5138 (160 mg/kg by oral gavage) and Ket (10 mg/kg by i.p. injection), respectively and subjected to a FST on day 3. […]

[2] = system: point mutant form of Sestrin2 unable to bind leucine; assay: ILBA with Flag-tagged point mutant Sestrin2; format: binding, human
Description: This assay was also performed in cultured human cells over-expressing Sestrin2 N-terminally fused to a Flag tag. In this version of the assay, the procedure remained the same, but immunoblotting was performed with a mouse anti-Flag antibody (#F3165, SIGMA).

Sestrin2 = molecular target: T1, Sestrin2 (Homo sapiens, UniProt P58004); assay: Indirect ligand binding assay (ILBA, Method 7), immunoprecipitation with CST anti-Sestrin2 antibody; parameters: endogenous in cells; host or cells: unnamed human cell line (crude lysate after 1 h amino acid starvation); settings: crude lysate of amino acid-starved human cell line; 1 hour incubation
T1 sequence (P58004 1-480): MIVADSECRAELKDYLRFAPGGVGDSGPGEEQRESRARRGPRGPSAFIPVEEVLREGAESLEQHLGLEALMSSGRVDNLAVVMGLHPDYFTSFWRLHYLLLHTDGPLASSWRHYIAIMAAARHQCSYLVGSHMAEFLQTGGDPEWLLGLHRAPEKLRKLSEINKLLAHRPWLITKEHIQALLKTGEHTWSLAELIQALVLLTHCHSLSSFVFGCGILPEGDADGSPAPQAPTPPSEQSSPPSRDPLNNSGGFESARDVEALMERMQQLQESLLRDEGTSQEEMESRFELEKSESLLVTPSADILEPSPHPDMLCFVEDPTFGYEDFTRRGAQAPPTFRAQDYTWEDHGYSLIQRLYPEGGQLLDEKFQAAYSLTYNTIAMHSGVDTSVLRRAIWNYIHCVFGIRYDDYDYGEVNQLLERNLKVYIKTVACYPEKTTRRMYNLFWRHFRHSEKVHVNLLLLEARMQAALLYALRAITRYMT
Description: Conversely, compounds that destabilized Sestrin2 as measured by thermal shift assay increased the affinity of the CST antibody for non-denatured Sestrin2. […] In one version, the assay was performed with crude lysate generated from a human cell line after a 1-hour period of amino acid starvation (cells are lysed in 1% Triton, 10 mM beta-glycerol phosphate, 10 mM sodium pyrophosphate, 40 mM HEPES [pH 7.4], 150 mM NaCl and 2.5 mM MgCl2). […] After compound incubation, samples were subjected to immunoprecipitation with the CST anti-Sestrin2 antibody for 1.5 hours followed by a 30-minute incubation with protein-A sepharose as described in L. Chantranupong, et al., Cell Reports 9:1-8 (2014). The sepharose conjugated antibody-protein complex was precipitated via centrifugation and the flow-through was subjected to a second round of immunoprecipitation with a rabbit polyclonal anti-Sestrin2 antibody (Protein Tech, #10795-1-AP) to determine that total Sestrin2 protein levels between samples were equal. SDS-PAGE was performed with the immunoprecipitation samples followed by western-blot with the mouse monoclonal anti-Sestrin2 antibody from SIGMA (cat #WH0083667M3). […] This version of the assay also measured increased instability of Sestrin2 induced by incubation with compounds.

SMILES | animals that developed mild emesis ([1]; half of the animals (6 out of the 12 dosed)) [animals] | HTT, number of threat postures ([1]; twenty-four hours after acute administration) | NSFT (Male Sprague Dawley rats) | decrease in affinity of the CST antibody upon ligand binding [2] | decrease in intensity of the Sestrin2 band (immunoprecipitated with CST anti-Sestrin2 antibody) (Sestrin2) [%]
CNC1(c2ccccc2Cl)CCCCC1=O (centres unmarked) [Ketamine, reference compound] | 6 | induces an anxiolytic/antidepressant-like profile | significant effects | – | –
CC(C)C[C@H](N)C(=O)O [leucine] | – | – | – | not observed | ≥ 50
